Measured values reported in patent US20260258420A1, “COMPOSITIONS AND METHODS FOR THE TREATMENT OF HUMAN PAPILLOMAVIRUS-DRIVEN CANCERS” (priority 2023, published 2026).

Experiments:
[1] = test system: 2 HPV-positive cell lines with TRIP13 overexpression; experiment: Apoptosis with TRIP13 overexpression, HPV-positive cells; assay type: cell-based; conditions: 300 nmol/L, 24 or 32 hours
Method: FIG. 5A, two HPV-positive cell lines (CASKI and SIHA) were transfected with BUB1B or MAD2L1 siRNA and then treated for 24 hours with 300 nmol/L alisertib before lysis and immunoblotting with the indicated antibodies. FIG. 5B, TRIP13 was transiently overexpressed (Ox) in 2 HPV-positive cell lines that were treated for 24 hours with 300 nmol/L alisertib before lysis and immunoblotting for the indicated proteins. FIG. 5C, HPV-positive cell lines with TRIP13 overexpression were treated with 300 nmol/L alisertib for 32 hours and then stained for annexin V-PE/7AAD staining and analysis with flow cytometry to measure apoptosis. The bar graph represents the ratio of apoptosis (late plus early) among different groups. Values are the means±the standard deviations for 3 independent experiments. ** P≤0.01; *** P≤0.001; unpaired, 2-tailed Student t-test. FIG. 5D, HN31 (left panel) and MDA886LN (right panel) cells expressing RB1 or control shRNA were transfected with a plasmid for TRIP13. After 24 hours, cells were treated with 300 nmol/L alisertib and then lysed for immunoblotting. Cl, cleaved; Fl, full length; GAPDH, glyceraldehyde 3-phosphate dehydrogenase.
In normal cells, prolonged mitosis resulting from Mad2 overexpression can lead to G1 arrest or mitotic cell death, so it is unclear why Mad2 overexpression is tolerated in HPV-positive cancers. […]

[2] = test system: 16 HPV-positive HNSCC and cervical squamous cancer cell lines; experiment: High-throughput drug screen (HTDS), cell death by AOC_LD, HPV-positive cell lines; assay type: cell-based
Method: The concordance correlation coefficient was computed to assess the reproducibility of the normalized growth rates of the 2 replicates. […] A chi-square test was applied to compare drug classification and the cluster membership. The Fisher exact test was applied to compare mutations status (wild-type and mutant) and drugs' response data (sensitive and resistant).
The effects of 864 unique drugs from 51 classes was tested in 16 HPV-positive and 17 HPV-negative HNSCC and cervical squamous cancer cell lines (Table 2) that were characterized previously (Kaiu, et al., Oncotarget 2017; 8(49):86369-83).

[3] = human clinical trials; cited from earlier work
[4] = test system: two HPV-positive cell lines transfected with E7 siRNA; experiment: Apoptosis immunoblot in HPV-positive cells with E7 siRNA; assay type: cell-based; conditions: 300 nmol/L, 24 hours
Method: Each data point represents 1 cell line. Box plots show the median pRb […] levels and 95% confidence intervals across all cell lines in the category. t-test P=0.0097. FIG. 4B, HPV-negative HNSCC cells (HN31, UMSCC4, and MDA886LN) were infected with distinct, lentivirus-based shRNAs (Sh2, Sh4, and Sh6) to stably knock down the expression of RB1 or were treated with control (Ctrl) shRNA. Cells were then treated with 300 nmol/L alisertib for 24 hours before annexin V-PE/7AAD staining and analysis with flow cytometry. The bar graph represents the ratio of apoptosis (late plus early) among different groups. Values are the means±the standard deviations for 3 independent experiments. *P<0.05; **P<0.005; unpaired, 2-tailed Student t-test. FIG. 4C, cells from FIG. 4B were treated with 300 nmol/L alisertib for 24 hours before lysis and immunoblotting with the indicated antibodies. FIG. 4D-E, HN31 cells were stably transfected with an E7 plasmid and treated with 300 nmol/L alisertib for 24 hours before lysis and immunoblotting with (FIG. 4D) the indicated antibodies or (FIG. 4E) annexin-PE staining to measure apoptosis. Values are the means±the standard deviations for 3 independent experiments. ** P≤0.01; *** P≤0.001. FIG. 4F, two HPV-positive cell lines were transfected with 10 nmol/L siRNA oligonucleotides specific to E7 or with control oligonucleotides. […]

[5] = test system: 2 HPV-positive cell lines transfected with MAD2L1 plasmid; experiment: Apoptosis with Mad2 overexpression; assay type: cell-based; conditions: 100 nmol/L, 24 hours
Method: FIG. 6A, mRNA expressions of MAD2L1, BUBIB and TRIP13 in HNSCC HPV-positive (n=70) and HPV-negative (n=447) HNSCC patient tumors from the TCGA (left panel) and in HPV-positive (n=51) and HPV-negative OPSCC [(n=28), right panel]. FIG. 6B, FIG. 6C, TRIP13 was depleted by siRNA in HPV-positive and negative cell lines. Cells were then treated with 100 nmol/L alisertib for 36 hours before being subjected to lysis and immunoblotting with the indicated antibodies (FIG. 6B) or annexin-PE staining to measure apoptosis using flow cytometry (FIG. 6C). FIG. 6D, FIG. 6E, the MAD2L1 plasmid was transiently transfected into 2 HPV-positive cell lines that were then treated with 100 nmol/L alisertib for 24 hours before being subjected to lysis and immunoblotting for the indicated proteins (FIG. 6D) or annexin-PE staining to measure apoptosis (FIG. 6E). Values are the means±the standard deviations for 3 independent experiments (** P≤0.01). Cl, cleaved; Fl, full length; GAPDH, glyceraldehyde 3-phosphate dehydrogenase; Ox, overexpression. FIG. 6F, model of the synthetic lethality between TRIP13 and Aurora kinase A. HPV-positive, Rb deficient cancer cells rely on both TRIP13 and Aurora kinase activity to maintain mitotic fidelity, such that their combined inhibition will lead to a prolonged spindle assembly checkpoint (SAC), irreversible mitotic arrest, and cancer cell death. […]

SMILES: COc1cc(Nc2ncc3c(n2)-c2ccc(Cl)cc2C(c2c(F)cccc2OC)=NC3)ccc1C(=O)O [ALISERTIB, alisertib]
- apoptosis with TRIP13 overexpression (PARP and caspase-3 cleavage, annexin V) [1]: partial rescue
- HPV positive Resistant (number of cell lines) ([2]; resistant = AOC_LD 0): 6
- HPV positive Sensitive (number of cell lines) ([2]; sensitive = AOC_LD greater than 0): 10
- common toxicities [3]: anemia, thrombocytopenia, and neutropenia
- apoptosis with and without E7 knockdown (increased Rb expression) [4]: caused apoptosis in the HPV-positive cell lines but not in the same cells with increased Rb expression
- apoptosis with Mad2 overexpression [5]: enhanced apoptosis
